Several values for one entry are separate records, joined by “and”; a condition that tells them apart may be missing. Identical values can stand only once. Bridge positions count the residues as written; N and C are the ends. Square brackets hold non-standard residues; d marks the D form. Trp(5-F) = N[C@@H](Cc1c[nH]c2ccc(F)cc12)C(=O)O
Columns and labels:
[1] = Intravitreal administration to non-human primates: deposit formation and compound content (Example 1); format: in vivo; conditions: Cynomolgus monkey, IVT 150 μg/eye, from 4 hours to 2 weeks post administration
Procedure: Two different formulations were manufactured by dissolving the compound into water for injection at different concentrations: (i) 0.299 mg/mL, designated LD and (ii) 4.51 mg/mL, designated as HD and filter sterilizing through a Millipore Durapore 47 mm 0.22 μm filter. The liquid compositions were dispensed into individual vials (250 μl each). The pH of the LD composition was 5.48 while that of the HD composition was 6.0.
During studies involving intravitreal administration of the compstatin analog whose synthesis was described above (SEQ ID NO: 32) in water for injection to non-human primates it was observed that the compound has the ability to form gel-like, approximately spheroidal intravitreal deposits in the primate (Cynomolgus monkey) eye following intravitreal injection. […]
(§1) At necropsy, in the majority of male animals (10 of 12) that had been dosed with compound IVT at 150 μg/eye, gel-like spheroidal intravitreal deposits were observed upon dissection of the eye. These deposits were isolated and analyzed for the presence of the compound.
The deposits were analyzed for drug content, and drug content was observed and measured using HPLC.

[2] = Ocular safety examinations after intravitreal injection (Example 1); format: in vivo; conditions: Cynomolgus monkey
Procedure: During studies involving intravitreal administration of the compstatin analog whose synthesis was described above (SEQ ID NO: 32) in water for injection to non-human primates it was observed that the compound has the ability to form gel-like, approximately spheroidal intravitreal deposits in the primate (Cynomolgus monkey) eye following intravitreal injection. […] The high dose consisted of the intravitreal (IVT) injection of an estimated dose of 150 μg of compound in a volume of 50 μL water for injection while the low dose consisted of an estimated dose of 3 μg of compound in a volume of 50 μL water for injection.
as §1

[3] = Indirect ophthalmoscope exam in dose-ranging study for vitreous deposits formation; format: in vivo, New Zealand White rabbits; design: key to Indirect Exam Vit.: 0: Clear, no deposits, bubbles, or haziness detectable; 1: Light haziness, no opaque deposits or vitreous opacity; 2: Moderate opacity or opaque bubble or deposit; 3: Pronounced vitreal opacity; 4: Opaque; key to Indirect Exam Retina: 0: Flat, no mars, blisters or blemishes; 1: Not flat; has wrinkles, bumps, or ripples; 2: Minor inflammation or bleeding; 3: Retinal detachment, moderate hemorrhage; 4: Destruction of retinal tissue (GA, CNV, retinal tear); conditions: NZW rabbit; for Indirect Exam Retina / Indirect Exam Vit.: 27 hours after treatment
Procedure: The study examined the ability of compound in amounts ranging from 0 to 200 μg/eye (0, 25, 50, 75, 100, 125, 150,175, 200 μg) to form deposits in the eye following intravitreal injection (Table 2). Each concentration was injected into three eyes. Thirteen animals were used for dose-ranging. Five additional animals were used for histological analysis.
Injection Procedures: Intravitreal injections were administered using a 0.5 cc tuberculin syringe (with permanently attached 29 G ½ inch needle); 0.2 ml of compound solution was withdrawn from the vial. Excess liquid was expelled, so that the syringe contained only the necessary volume of liquid for a single injection (50 μl). The eye was kept open using an eye lid speculum. The needle was inserted in the supero-temporal quadrant, through an area 3.5-4.0 mm posterior to the limbus, avoiding the horizontal meridian and aiming toward the center of the eye. Only half (¼ inch) of the needle total length (½ inch) was inserted into the eye. The injection volume was delivered slowly to prevent a rapid increase in intraocular pressure. To ensure that all the solution is in the eye and to avoid push-back through the injection site, the needle was removed slowly.
Ophthalmic Examinations: All animals received an ophthalmic exam (indirect ophthalmoscope) by a practicing clinical ophthalmologist prior to sacrifice.

[4] = Histopathological analysis of eyes after intravitreal injection; format: in vivo, New Zealand White rabbits
Procedure: Histopathological Analysis: After examination, animals were euthanized and eyes were enucleated, fixed in Davidson's solution, sectioned and H/E stained. Sections from both eyes of animals receiving 25, 50, or 100 μg/eye of compound (Table 2, last three animals) were examined by an American Board of Pathology-certified pathologist, and peer-reviewed by a board-certified and recognized expert veterinary pathologist.
Five animals in this study were also processed for histopathological evaluation. The eyes were evaluated by two pathologists. […] The cornea, iris, ciliary body, lens, sclera, retina, and vitreous were all normal.

[5] = Further studies of deposits, serum and vitreous concentration after intravitreal injection (Example 3); format: in vivo, Cynomolgus monkeys
Procedure: In one study, Cynomolgus monkeys were administered 0, 150, 450, 1050, or 2100 μg of compound in 50 μl WFI by intravitreal injection.
Some of the animals that had been administered 0, 450, 1050, or 2100 μg were sacrificed, and compound concentration in serum and vitreous was measured 14 days following administration. Compound measurement was performed using HPLC. […] When administered at concentrations too low to form a deposit, the compound is cleared from the Cynomolgus vitreous with a T1/2 of about 22 hours. Therefore, it is evident that the compound measured in this experiment after 2 weeks must reflect release from the deposit rather than residual compound that was never present in the deposit.
The study was continued to evaluate behavior of the deposits over time. […] There was evidence that they were diminishing in size and/or density at the 6 month time point. […] The deposits could be observed both by ophthalmoscopic examination and ultrasound. They appeared to continue diminishing in size and/or split into multiple smaller deposits over time.
The deposits were undetectable using these techniques by approximately 1 week following dosing.

complement activation = conditions: relative to compstatin amidated at the C-terminus; based on published data; cited from earlier work

CC[C@H](C)[C@H](NC(C)=O)C(=O)N[C@H]1CSSC[C@@H](C(=O)N[C@H](C(N)=O)[C@@H](C)O)NC(=O)[C@H](CCCNC(=N)N)NC(=O)[C@H](Cc2cnc[nH]2)NC(=O)[C@H](C)NC(=O)CNC(=O)[C@H](Cc2c[nH]c3ccccc23)NC(=O)[C@H](CC(=O)O)NC(=O)[C@H](CCC(N)=O)NC(=O)[C@H](Cc2cn(C)c3ccccc23)NC(=O)[C@H](C(C)C)NC1=O [Ac-V4(1-MeW)/H9A, Ac-ICV(1-methyl-W)QDWGAHRCT-CONH2]
Compound in the vitreous [1]: presence of the compound at all time points examined | Adverse reactions caused by compound within the vitreous cavity ([2]; IVT 3 or 150 μg/eye): no evidence that the compound within the vitreous cavity caused any apparent adverse reactions | ERG values ([2]; IVT 3 or 150 μg/eye): within normal limits | Tonometry, intraocular pressure ([2]; IVT 3 or 150 μg/eye): no drug-related changes in intraocular pressure | Vitreal haze, binocular indirect ophthalmoscopy ([2]; day 2, IVT 3 μg/eye): diffuse vitreal haze in the right eye of one animal | Vitreal haze, binocular indirect ophthalmoscopy ([2]; day 2, IVT 150 μg/eye): four animals | Slit lamp examinations of the anterior segment of the eye ([2]; days 2 and 15 following IVT administration): no abnormalities | Histopathology of the eyes ([2]; with or without intravitreal deposits): no drug-related abnormalities were observed | Indirect Exam Retina ([3]; 25 μg/eye IVT in 50 μl): 0 | Indirect Exam Vit. ([3]; 25 μg/eye IVT in 50 μl): 1 | Indirect Exam Retina ([3]; 50 μg/eye IVT in 50 μl): 0 | Indirect Exam Vit. ([3]; 50 μg/eye IVT in 50 μl): 2 and 1 | Indirect Exam Retina ([3]; 75 μg/eye IVT in 50 μl): 0 | Indirect Exam Vit. ([3]; 75 μg/eye IVT in 50 μl): 1 and 2 | Indirect Exam Retina ([3]; 100 μg/eye IVT in 50 μl): 0 | Indirect Exam Vit. ([3]; 100 μg/eye IVT in 50 μl): 2 and 3 | Indirect Exam Retina ([3]; 125 μg/eye IVT in 50 μl): 0 | Indirect Exam Vit. ([3]; 125 μg/eye IVT in 50 μl): 1 | Indirect Exam Retina ([3]; 150 μg/eye IVT in 50 μl): 0 | Indirect Exam Vit. ([3]; 150 μg/eye IVT in 50 μl): 2 and 1 | Indirect Exam Retina ([3]; 175 μg/eye IVT in 50 μl): 2 and 0 | Indirect Exam Vit. ([3]; 175 μg/eye IVT in 50 μl): 2 and 1 and 4 | Indirect Exam Retina ([3]; 200 μg/eye IVT in 50 μl): 0 | Indirect Exam Vit. ([3]; 200 μg/eye IVT in 50 μl): 1 | Pathological changes on indirect ophthalmoscopic exam ([3]; IVT 25-200 μg/eye): did not reveal any pathological changes | Eyes with vitreous haze ([3]; IVT, did not correlate strongly with dose): 9 of the 32 | Histopathological evaluation of eyes ([4]; NZW rabbit, single-dose IVT 25, 50 and 100 μg/eye, two pathologists): all the evaluated eyes were normal | Adverse effects attributable to the deposits ([4]; rabbit studies, histopathology and physical examination): No adverse effects attributable to the deposits were observed | Continued release based on serum samples ([5]; Cynomolgus monkey, IVT 450, 1050, 2100 μg, up to 1 year): continued release of compstatin analog occurred during this time | Serum concentration relative to vitreal concentration at the same dose ([5]; Cynomolgus monkeys, 14 days following IVT 450, 1050 or 2100 μg): approximately 100 fold lower | Duration of release from intravitreal deposits ([5]; Cynomolgus monkeys, IVT 450, 1050 or 2100 μg, serum and vitreous HPLC at 14 days): at least two weeks | half-life ([5]; cynomolgus monkey, other: intravitreal injection, Cynomolgus vitreous, concentrations too low to form a deposit, read-out: T1/2 of clearance from the vitreous (converted)): ~22 h | Adverse effects attributable to the deposits ([5]; monkey studies, histopathology and physical examination): No adverse effects attributable to the deposits were observed

Ac-ICV(5fW)QD(5fW)GAHRCT-CONH2 (Ac-ICV[Trp(5-F)]QD[Trp(5-F)]GAHRCT-NH2; disulfide 2-12) [Ac-V4(5fW)/W7(5fW)/H9A]
Activity over compstatin (complement activation): 161× more

— US20110182877A1, “SUSTAINED DELIVERY OF COMPSTATIN ANALOGS FROM GELS” (POTENTIA PHARMACEUTICALS, INC., priority 2007, published 2011)
